Where a SMILES comes first, the peptide text is derived from it. [ ]: non-standard residue; d: D form. The star is where a group is joined. Dolaproine = CO[C@@H]([C@@H]1CCCN1)[C@@H](C)C(=O)O; Dil = CC[C@H](C)[C@H](NC)[C@@H](CC(=O)O)OC; X1 = C[C@@H](N*)[C@@H](O)c1ccccc1; NMeV = CN[C@H](C(=O)O)C(C)C
Tests used:
NCI-H226 = test: preliminary toxicity study of MMAE in NSCLC line; type: cell-based, human
Excerpt: (§1) There are various linker chemistries for ADCs in use clinically and being investigated, as described in Chapter One. A common motif in ADCs is the valine-citrulline dipeptide which is recognized by human Cathepsin B, a lysosomal enzyme. The full motif typically used is valine-citrulline-p-aminobenzylcarbamate-monomethyl auristin E (vc-MMAE). […] The vc-MMAE structure is used in several FDA approved ADCs (brentuximab vedotin, polatuzumab vedotin, enfortumab vedotin) which target both hematologic and solid tumors.

NCI-H520 [1] = test: preliminary toxicity study of MMAE in NSCLC line; type: cell-based, human
Excerpt: as §1

NCI-H520 [2] = test: in vitro cytotoxicity (MTT); type: cell-based, human; settings: NCI-H520
Description: (§2) We utilized two different incubation methods.
(§3) We then incubated the human cell lines with ADC, and equivalent concentrations of MMAE and native Ab for both 48 hours and 72 hours, the results of which can be seen in FIG. 13A-13E. We expected the results to correlate with the GPR87 expression we observed by flow cytometry. For the normal cell lines, this was the case. As detailed in FIG. 14, the line that was most sensitive to the ADC were the NHLFs, followed by the BEAS-2Bs, and the line with the lowest GPR87 expression, the HUVECs, had the highest IC50 after 72 hours. However, both the NSCLC cell lines had relatively high IC50s given the GPR87 expression status of these lines.
In comparison, NCI-H358 and NCI-H520 see approximately a 4-fold or 2-fold decrease in IC50, respectively, between the two time points. On the other hand, the NCI-H520 line has almost a 10-fold increase in MMAE IC50 at 72 hours compared to 48 hours. The results are likely because the cell lines are different sizes and morphologies and therefore are at different confluencies when plated at the same number of cells per well and are therefore likely to be in different parts of their log growth phase during treatment. For example, the NSCLC lines are typically at very low confluency at a plating density of 5,000 cells per well and may not reach log phase growth until later in the assay. As MMAE affects actively dividing cells, this will affect the results of the assay. While 72 hours was not the optimized end time point for all five cell lines, in order to have a standardized cell plating density, and therefore same ADC:cell ratio, going past 72 hours for some of the cell lines would lead to confluency or death in untreated control cells, which would also confound results. Thus, we incubated the two NSCLC lines for longer periods of time to allow the control cells to become more confluent by the assay endpoint, and to see how this would affect the ADC IC50.
(§4) Standard cytotoxicity assays, like the MTT assays ran here, measure or rather, approximate the cell number at an end point and compare to control untreated cells. Effectively what is measured is a comparison between growth rates. When comparing the efficacy of a drug, particularly a mitotic inhibitor, among different cell lines, division rate differences due to biology, media additives, or seeding density can have a dramatic effect on the IC50, an issue brought up by Hafner et al. They reported with both modeling and in vitro assays how using the IC50 as a metric can actually mask the true mechanism of a drug, for example the microtubule inhibitor paclitaxel. […] GR values indicate whether a drug inhibits growth (0<GR<1), is cytostatic (GR=0) or cytotoxic (GR<0). To calculate this parameter, one needs cell count data for at least two different time points and compares experimental growth rates to the growth rate of control cells. […] Consequently, we reviewed the data at our two time points to perform a similar analysis. We plated at the same seeding density for both the 48 and 72 hour time points. As MTT is an endpoint assay rather than a kinetic assay like MTS, we can use MTT signal as a proxy for cell count. […] Therefore, we excluded this cell line from our analysis. We are technically assessing the effect the ADC or equivalent MMAE has on the growth rate of cells at 60 hours, as we are measuring at t=x±delta t, with x being 60 and delta t being 12 hours. Ideally, we would assess an earlier time point or even multiple time points. […] (FIGS. 19A-19D). Conversely, both NCI-H520 and NCI-H358 are cytotoxic (GR<0) at higher concentrations of ADC at this time point. […] While the GR50 data is still not in agreement with GPR87 expression, it does indicate that this type of analysis at other, earlier, time points is useful in assessing the dynamics of ADC and MMAE cytotoxicity in these cell lines.

BEAS-2B = test: in vitro cytotoxicity (MTT); type: cell-based, human
Description: as §2, §3, §4

NHLF = test: in vitro cytotoxicity (MTT); type: cell-based, human
Description: as §2, §3, §4

SKBR-3 = test: in vitro toxicity of αHER2-P3 based ADC; settings: SKBR-3, 72 h, up to 10 μg/ml ADC (equivalent to 100 ng/ml MMAE)
Description: (§6) The toxicity of the new ADC was investigated in vitro in the HER2-positive cell lines: SKBR-3 and A549. We treated the cells with up to 10 μg/ml of ADC (equivalent to 100 ng/ml of MMAE) along with native antibodies and free drug at equivalent concentrations.

A549 = test: in vitro toxicity of αHER2-P3 based ADC; settings: A549, 72 h, up to 10 μg/ml ADC (equivalent to 100 ng/ml MMAE)
Description: as §6

NIH-3T3 = test: in vitro cytotoxicity, negative control line; settings: NIH-3T3, up to 10 μg/ml ADC or equivalent concentrations, 72 hours
Description: We incubated NIH-3T3s with up to 10 μg/ml of ADC (67 nM, equivalent to 96 ng/ml of MMAE) along with the native antibody and MMAE alone at equivalent concentrations.

NCI-H358 = test: internalization of AFC, confocal colocalization with EEA1 / LAMP1; type: cell-based, human; settings: NCI-H358, 3 or 10 μg/ml, up to 4 hours
Description: (§5) The GPR87 receptor is a G-protein coupled receptor (GPCR), a class of receptors which are activated by an extracellular ligand, initiating activation of associated intracellular G proteins for downstream signaling. Following activation, GPCRs are often internalized and recycled to prevent prolonged stimulation. […] Therefore, we wanted to confirm the uptake of our αGPR87 AFC in the two GPR87 high expressing NSCLC cell lines, NCI-H358 and NCI-H520. We cocultured the cells with 3 μg/ml of AFC for either 30 minutes or 1 hour and fixed and permeabilized the cells before immunofluorescently staining for either the early endosomal marker EEA1 or the lysosomal marker LAMP1. Shown in FIG. 11 are the images from these studies with the AFC signal, either the EEA1 or LAMP1 signal, and DAPI. The merged images are shown as well as the AFC and either EEA1 or LAMP1 signals merged, with colocalization. […] To investigate this further, we increased the concentration of AFC to 10 μg/ml and increased the incubation times to 1, 2, and 4 hours. […] By 2 hours, the AFC now is highly colocalized with the lysosomes and further colocalizes by the 4-hour timepoint while also showing less of a membranous staining pattern. From these analyses, we can determine that the AFC is indeed internalized by the human NSCLC cancer cell lines NCI-H520 and NCI-H358, albeit with different apparent kinetics.

NCI-H520 [3] = test: as above; type: cell-based, human; settings: NCI-H520, 3 μg/ml, 30 minutes and 1 hour
Description: as §5

[4] = tested on: stage four mucinous lung adenocarcinoma patient derived xenograft (PDX); test: preliminary in vivo trafficking of AFC, IVIS imaging of PDX tumor bearing mouse; settings: 24 hours after tail injection at 2.5 mg/kg
Description: We had access to a stage four mucinous lung adenocarcinoma patient derived xenograft (PDX) model. We assessed the GPR87 positivity in the tumor and found it to be positive for GPR87. (FIG. 19A) We ran a preliminary study using the AFC to determine whether the AFC would traffic to the tumor in vivo. Twenty-four hours following injection in the tail at 2.5 mg/kg, the tail, tumor, and major organs were collected and imaged with an IVIS system. […] (FIG. 19B) We moved forward with a preliminary study of the AFC in PDX tumor bearing NSG mice. Four mice were injected with 10 mg/kg of AFC once the tumor reached approximately 200-300 mm^3 and blood was drawn at 4 hours, 3 days, and 2 weeks. The mice were intended to be kept for 2 weeks, but one animal had to be euthanized at day 3 due to tumor size. At the 2-week time point, we euthanized the other animals and harvested the organs. The plasma and organ AFC levels were analyzed by a custom ELISA which detects intact AFC, as described in Chapter Four. The results are seen in FIG. 20A. […] The Ab readout detected a higher concentration of Ab than AFC, however, the general trend of clearance is maintained. […] Whereas we detect <1 μg/ml of AFC at 3 days by either AFC or Ab readout, levels above 10 μg/ml have been reported with similar ADC DAR ratio (˜2) and dose (10 mg/kg). […]

[5] = preliminary AFC clearance and biodistribution in PDX tumor bearing NSG mice, ELISA; type: in vivo; settings: 10 mg/kg
Description: We had access to a stage four mucinous lung adenocarcinoma patient derived xenograft (PDX) model. We assessed the GPR87 positivity in the tumor and found it to be positive for GPR87. (FIG. 19A) We ran a preliminary study using the AFC to determine whether the AFC would traffic to the tumor in vivo. Twenty-four hours following injection in the tail at 2.5 mg/kg, the tail, tumor, and major organs were collected and imaged with an IVIS system. […] (FIG. 19B) We moved forward with a preliminary study of the AFC in PDX tumor bearing NSG mice. Four mice were injected with 10 mg/kg of AFC once the tumor reached approximately 200-300 mm^3 and blood was drawn at 4 hours, 3 days, and 2 weeks. The mice were intended to be kept for 2 weeks, but one animal had to be euthanized at day 3 due to tumor size. At the 2-week time point, we euthanized the other animals and harvested the organs. The plasma and organ AFC levels were analyzed by a custom ELISA which detects intact AFC, as described in Chapter Four. The results are seen in FIG. 20A. […] We also ran an ELISA with an anti-mouse IgG secondary to determine the total Ab concentrations and assess whether the AFC was being cleared or was not stable (FIG. 20B). The Ab readout detected a higher concentration of Ab than AFC, however, the general trend of clearance is maintained. The concentration even by 3 days is markedly low for our AFC. Whereas we detect <1 μg/ml of AFC at 3 days by either AFC or Ab readout, levels above 10 μg/ml have been reported with similar ADC DAR ratio (˜2) and dose (10 mg/kg). However we are utilizing NSG mice to facilitate the PDX model. It has been reported that NSG mice have enhanced clearance rates of both antibodies and ADCs. However, even in comparison to the clearance rates in NSG mice noted by Li et al., AFC clearance is fast.
We also analyzed the organs at the 3 day and 2 week time point with an ELISA (FIGS. 20C-20D).

[6] = AFC concentration in blood plasma of Balb/c mice, ELISA; type: in vivo; settings: 10 mg/kg, samples at 1 hour, 7 and 14 days
Description: To make sure that the coiled-coil has no significant effect on antibody clearance, we performed a preliminary study of AFC concentration in blood plasma (FIG. 33). 10 mg/kg AFC was injected into two Balb/c mice. Blood samples were collected at 1 hour, 7 and 14 days and examined for AFC concentration by ELISA assay.

Molecule	IC50 (NCI-H226) [nM]	IC50 (NCI-H520 [1]) [nM]	increase in IC50 at 72 hours compared to 48 hours (NCI-H520 [2]) [fold]	GR50 (BEAS-2B)	GR50 (NHLF)	cell viability (SKBR-3) [%]	cell viability (A549) [%]	cytotoxicity (NIH-3T3)	internalization (NCI-H358)	internalization (NCI-H520 [3])	fluorescence of tail, tumor and major organs [4]	plasma concentration at 3 days ([5]; by either AFC or Ab readout) [ng/mL]	concentration in tumor and organs ([5]; compared to liver, kidney, spleen, heart and lung, preliminary)	clearance ([5]; plasma at 4 hours, 3 days, 2 weeks)	AFC concentration in plasma [6]
CC[C@H](C)[C@@H]([C@@H](CC(=O)N1CCC[C@H]1[C@H](OC)[C@@H](C)C(=O)N[C@H](C)[C@@H](O)c1ccccc1)OC)N(C)C(=O)[C@@H](NC(=O)[C@@H](NC)C(C)C)C(C)C [MMAE, Monomethyl auristatin E, reference compound] (H-[NMeV]V[Dil][Dolaproine]-X1)	0.294	0.042	~10	cannot be calculated	do not reach that value	20	20	highly toxic	–	–	–	–	–	–	–
AFC (conjugate) heavy: EVQLQQSGPDLVKPGASMKISCKASGYSFTDYTMHWVKQSHGKNFEWIGLINPYNDGTTYNQKFKGKATLTVDKSSSTAYMELLSLTSEDSAVYYCASLDYWGQGTSVTVSSAKTTPPSVYPLAPGSAAQTNSMVTLGCLVKGYFPEPVTVTWNSGSLSSGVHTFPAVLQSDLYTLSSSVTVPSSTWPSETVTCNVAHPASSTKVDKKIVPRDCGCKPCICTVPEVSSVFIFPPKPKDVLTITLTPKVTCVVVDISKDDPEVQFSWFVDDVEVHTAQTQPREEQFNSTFRSVSELPIMHQDWLNGKEFKCRVNSAAFPAPIEKTISKTKGRPKAPQVYTIPPPKEQMAKDKVSLTCMITDFFPEDITVEWQWNGQPAENYKNTQPIMDTDGSYFVYSKLNVQKSNWEAGNTFTCSVLHEGLHNHHTEKSLSHSPGKGGGGGMKLKKIKSVLKKIKSVLKKIKSVLKKIKSVVGER light: DVVMTQTPLSLPVSLGDQASISCRSSQSLVHSSGNTYLHWYLQKPGQSPKLLIYKVSNRFSGVPDRFSGSGSGTDFTLKISRVEAEDLGVYFCSQSTHVPYTFGGGTKLEIKRADAAPTVSIFPPSSEQLTSGGASVVCFLNNFYPKDINVKWKIDGSERQNGVLNSWTDQDSKDSTYSMSSTLTLTKDEYERHNSYTCEATHKTSTSPIVKSFNRNEC peptide: MKLEEIVSELEEIVSELEEIVKELEEIVYEVGER	–	–	–	–	–	–	–	–	internalized	internalized	tail (injection site) and tumor both showed high fluorescence, with little fluorescence in the major organs	< 1000	highest in the tumor at 3 days and at 2 weeks	rapidly cleared	A small amount of AFC was detected in plasma after 7 days

From patent publication US12281161B2, “Polypeptides and uses thereof” (TRUSTEES OF BOSTON UNIVERSITY, priority 2021, dated 2025)
